Source: patent US20020049223A1, “Quinoline and naphthyridine carboxylic acid antibacterials” (priority 1999, published 2002)

What was measured:
Experiment in all cases: Assay B: in vitro antibacterial activity, broth microdilution MIC (NCCLS)
Assay type in all cases: cell-based
[1] = tested on: Haemophilus influenzae DILL AMP R; details: Table 2, Assay B, Mueller Hinton broth with yeast extract, hematin and NAD, 20 to 24 hr; code E = Haemophilus influenzae DILL AMP R; unit assumed
Method in brief: (§1)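 Growth inhibition read by eye after incubation at 35° C (16 to 20 hr; 20 to 24 hr for S. pneumoniae and H. influenzae). Medium: cation-adjusted Mueller Hinton broth, supplemented with 3% lysed horse blood or with 5 g/L yeast extract, 0.3 mmol/L hematin and 15 mg/L NAD, respectively.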

[2] = tested on: Streptococcus pneumoniae ATCC 6303; details: Table 2, Assay B, Mueller Hinton broth with 3% lysed horse blood, 20 to 24 hr; code F = Streptococcus pneumoniae ATCC 6303; unit assumed
Method in brief: as §1

[3] = tested on: Enterococcus faecalis PIU 1967; details: Table 2, Assay B, cation-adjusted Mueller Hinton broth, 35° C., 16 to 20 hr; code B = Enterococcus faecalis PIU 1967; unit assumed
Method in brief: as §1

Escherichia coli JUHL = details: Table 2, Assay B, cation-adjusted Mueller Hinton broth, 35° C., 16 to 20 hr; code D = Escherichia coli JUHL; unit assumed
Method in brief: as §1

[4] = tested on: Staphylococcus aureus ATCC 6538P; details: Table 2, Assay B, cation-adjusted Mueller Hinton broth, 35° C., 16 to 20 hr; code A = Staphylococcus aureus ATCC 6538P; unit assumed
Method in brief: as §1

| Antibacterial Activity (MIC's), E [1] [µg/mL] | Antibacterial Activity (MIC's), F [2] [µg/mL] | Antibacterial Activity (MIC's), B [3] [µg/mL] | Antibacterial Activity (MIC's), D (Escherichia coli JUHL) [µg/mL] | Antibacterial Activity (MIC's), A [4] [µg/mL] | Compound |
| --- | --- | --- | --- | --- | --- |
| 0.03 | 0.03 | 0.125 | 0.06 | 0.015 | Cc1c(F)c(-c2cc3c(s2)CCCC3N)nc2c1c(=O)c(C(=O)O)cn2C1CC1.Cl (stereo not drawn) [Example 367, 7-(4-amino-4,5,6,7-tetrahydro-1-benzothien-2-yl)-1-cyclopropyl-6-fluoro-5-methyl-4-oxo-1,4-dihydro-1,8-naphthyridine-3-carboxylic acid hydrochloride] |
| 0.06 | 0.5 | 0.25 | 0.5 | ≤ 0.004 | O=C(O)c1cn(C2CC2)c2cc(-c3cc4c(s3)CCCC4O)c(F)cc2c1=O (stereo not drawn) [Example 296, 1-cyclopropyl-6-fluoro-7-(4-hydroxy-4,5,6,7-tetrahydro-1-benzothien-2-yl)-4-oxo-1,4-dihydroquinoline-3-carboxylic acid] |
| 2 | 0.25 | 1 | 4 | 0.125 | CCON=C1CCc2sc(-c3ccc4c(=O)c(C(=O)O)cn(C5CC5)c4c3OC)cc2C1 [Example 78, 1-cyclopropyl-7-((5E/Z)-5-(ethoxyimino)-4,5,6,7-tetrahydro-1-benzothien-2-yl)-8-methoxy-4-oxo-1,4-dihydro-3-quinolinecarboxylic acid] |
| 0.125 | 0.03 | 0.5 | 0.25 | 0.06 | COc1c(-c2cc3c(s2)CCCC3=NNC2=NCCN2)ccc2c(=O)c(C(=O)O)cn(C3CC3)c12 [Example 100, 1-cyclopropyl-7-((4E/Z)-4-(4,5-dihydro-1H-imidazol-2-ylhydrazono)-4,5,6,7-tetrahydro-1-benzothien-2-yl)-8-methoxv-4-oxo-1,4-dihydro-3-quinolinecarboxylic acid] |
| 0.25 | 1 | 0.25 | 1 | 0.015 | COc1c(-c2cc3c(s2)CCCC3)ccc2c(=O)c(C(=O)O)cn(C3CC3)c12 [Example 243, 1-cyclopropyl-8-methoxy-4-oxo-7-(4,5,6,7-tetrahydro-1-benzothien-2-yl)-1,4-dihydro-3-quinolinecarboxylic acid] |
| ≤ 0.004 | 0.03 | 0.125 | 0.03 | 0.015 | Nc1cc(-c2cc3c(s2)C(N)CCC3)c(F)c2c1c(=O)c(C(=O)O)cn2C1CC1.O=C(O)C(F)(F)F (stereo not drawn) [Example 349, 5-amino-7-(7-amino-4,5,6,7-tetrahydro-1-benzothien-2-yl)-1-cyclopropyl-8-fluoro-4-oxo-1,4-dihydroquinoline-3-carboxylic acid trifluoroacetic acid salt] |
| 0.015 | 0.008 | 0.03 | 0.03 | 0.008 | Cl.NC1CCCc2sc(-c3cc4c(cc3F)c(=O)c(C(=O)O)cn4C3CC3)cc21 (stereo not drawn) [Example 307, 7-(4-amino-4,5,6,7-tetrahydro-1-benzothien-2-yl)-1-cyclopropyl-6-fluoro-4-oxo-1,4-dihydroquinoline-3-carboxylic acid hydrochloride] |
| ≤ 0.004 | 0.03 | 0.03 | 0.06 | ≤ 0.004 | Cc1c(-c2cc3c(s2)C(O)CCC3)c(F)cc2c(=O)c(C(=O)O)cn(C3CC3)c12 (stereo not drawn) [Example 369, 1-cyclopropyl-6-fluoro-7-(7-hydroxy-4,5,6,7-tetrahydro-1-benzothien-2-yl)-8-methyl-4-oxo-1,4-dihydroquinoline-3-carboxylic acid] |
| 0.25 | 0.125 | 1 | 1 | 0.125 | COc1c(-c2cc3c(s2)C(N)CN(S(C)(=O)=O)C3)ccc2c(=O)c(C(=O)O)cn(C3CC3)c12 (stereo not drawn) [Example 230, 7-(7-amino-5-(methylsulfonyl)-4,5,6,7-tetrahydrothieno[3,2-c]pyridin-2-yl)-1-cyclopropyl-8-methoxy-4-oxo-1,4-dihydro-3-quinolinecarboxylic acid] |
| ≤ 0.004 | 0.03 | 0.015 | 0.03 | ≤ 0.004 | O=C(O)c1cn(C2CC2)c2c(F)c(-c3cc4c(s3)CCCC4O)c(F)cc2c1=O (stereo not drawn) [Example 294, 1-cyclopropyl-6,8-difluoro-7-(4-hydroxy-4,5,6,7-tetrahydro-1-benzothien-2-yl)-4-oxo-1,4-dihydroguinoline-3-carboxylic acid] |
| 0.015 | 0.06 | 0.125 | 0.03 | 0.03 | Cl.NC1CCCc2sc(-c3nc4c(cc3F)c(=O)c(C(=O)O)cn4C3CC3)cc21 (stereo not drawn) [Example 156, 7-(4-amino-4,5,6,7-tetrahydro-1-benzothien-2-yl)-1-cyclopropyl-6-fluoro-4-oxo-1,4-dihydro[1,8]naphthyridine-3-carboxylic acid hydrochloride] |
| 0.008 | 0.125 | 0.06 | 0.125 | 0.008 | O=C(O)c1cn(C2CC2)c2c(Cl)c(-c3cc4c(s3)C(O)CCC4)ccc2c1=O (stereo not drawn) [Example 315, 8-chloro-1-cyclopropyl-7-(7-hydroxy-4,5,6,7-tetrahydro-1-benzothien-2-yl)-4-oxo-1,4-dihydroquinoline-3-carboxylic acid] |
| 0.125 | 0.25 | 0.5 | 1 | 0.5 | COc1c(-c2cc3c(s2)CNCC3N)ccc2c(=O)c(C(=O)O)cn(C3CC3)c12 (stereo not drawn) [Example 225, 7-(4-amino-4,5,6,7-tetrahydrothieno[2,3-c]pyridin-2-yl)-1-cyclopropyl-8-methoxy-4-oxo-1,4-dihydro-3-quinolinecarboxylic acid] |
| 0.125 | 0.125 | 0.25 | 0.25 | 0.06 | CNC1CCCc2cc(-c3ccc4c(=O)c(C(=O)O)cn(C5CC5)c4c3OC)sc21.Cl (stereo not drawn) [Example 216, 1-cyclopropyl-8-methoxy-7-(7-(methylamino)-4,5,6,7-tetrahydro-1-benzothien-2-yl)-4-oxo-1,4-dihydro-3-quinolinecarboxylic acid hydrochloride] |
| 0.03 | 0.06 | 0.06 | 0.125 | ≤ 0.004 | COc1c(-c2cc3c(s2)C(O)CCC3)c(F)cc2c(=O)c(C(=O)O)cn(C3CC3)c12 (stereo not drawn) [Example 299, 1-cyclopropyl-6-fluoro-7-(7-hydroxy-4,5,6,7-tetrahydro-1-benzothien-2-yl)-8-methoxy-4-oxo-1,4-dihydroquinoline-3-carboxylic acid] |
| 0.125 | 0.5 | 0.25 | 0.5 | 0.015 | COc1c(-c2cc3c(s2)CCC(C)C3O)ccc2c(=O)c(C(=O)O)cn(C3CC3)c12 (stereo not drawn) [Example 185, 1-cyclopropyl-7-(4-hydroxy-5-methyl-4,5,6,7-tetrahydro-1-benzothien-2-yl)-8-methoxy-4-oxo-1,4-dihydro-3-quinolinecarboxylic acid] |
| 0.25 | 0.125 | 0.5 | 4 | 0.03 | CON=C1CCc2sc(-c3ccc4c(=O)c(C(=O)O)cn(C5CC5)c4c3OC)cc2C1 [Example 56, 1-cyclopropyl-8-methoxy-7-((5E/Z)-5-(methoxnimino)-4,5,6,7-tetrahydro-1-benzothien-2-yl)-4-oxo-1,4-dihydro-3-quinolinecarboxylic acid] |

| Compound | Antibacterial Activity (MIC's), E [1] [µg/mL] | Antibacterial Activity (MIC's), F [2] [µg/mL] | Antibacterial Activity (MIC's), B [3] [µg/mL] | Antibacterial Activity (MIC's), D (Escherichia coli JUHL) [µg/mL] | Antibacterial Activity (MIC's), A [4] [µg/mL] |
| --- | --- | --- | --- | --- | --- |
| COc1c(-c2cc3c(s2)CCCC3=NNC(N)=S)ccc2c(=O)c(C(=O)O)cn(C3CC3)c12 [Example 84, 7-((4E/Z)-4-[(aminocarbothioyl)hydrazono)-4,5,6,7-tetrahydro-1-benzothien-2-yl)-1-cyclopropyl-8-methoxy-4-oxo-1,4-dihydro-3-quinolinecarboxylic acid] | 0.125 | 0.25 | 0.25 | 1 | 0.06 |
